# Where two headings read alike, the source gives them in different places.
# Assays:
# [1] = Toxicity on the same plates (ATPlite cell viability); conditions: African green monkey, CC50, Vero cells, same plates as DENV-2 antiviral assay
# DENV-2 16681 strain = experiment: DENV-2 antiviral assay (eGFP-labeled virus in Vero cells); format: cell-based, Dengue virus; conditions: Dengue virus, DENV2, Vero, 72 h, DENV-2 16681 eGFP, MOI 0.5, 3 days
# Method in brief: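 Vero cells (2500/well) pre-plated with compound (9-step 5-fold series), infected next day with eGFP-labeled DENV-2 16681 at MOI 0.5 in MEM with 2% FCS; 3 days at 37° C. eGFP fluorescence read at 488 nm; inhibition versus virus and cell controls, EC50 by linear interpolation.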
# [2] = analogous DENV-2 antiviral assay, reported activity; cited from earlier work
# DENV-2 = conditions: analogous DENV-2 antiviral assay, reported activity; cited from earlier work
SMILES,CC50 [1] [µM],melting point [°C],EC50 (DENV-2 16681 strain) [nM],CC50 [2] [µM],EC50 (DENV-2) [nM]
"COc1cc(NC(C(=O)c2c[nH]c3cc(OC)c(C(F)(F)F)cc23)c2ccc(F)cc2OC)cc(OCCO)c1 (racemic) [Compound 2, 2-(4-fluoro-2-methoxyphenyl)-2-((3-(2-hydroxyethoxy)-5-methoxyphenyl)amino)-1-(6-methoxy-5-(trifluoromethyl)-1H-indol-3-yl)ethanone]",4.8,174,0.71,–,–
COc1cc(NC(C(=O)c2c[nH]c3ccccc23)c2ccc(F)cc2)cc(OCCO)c1 (centres unmarked) [(350) of WO-2013/045516],–,–,–,46,10
"COc1cc(NC(C(=O)c2c[nH]c3cc(OC)c(OC(F)(F)F)cc23)c2ccc(F)cc2OC)cc(OCCO)c1 (racemic) [Compound 6, 2-(4-fluoro-2-methoxyphenyl)-2-((3-(2-hydroxyethoxy)-5-methoxyphenyl)amino)-1-(6-methoxy-5-(trifluoromethoxy)-1H-indol-3-yl)ethanone]",3.6,178,0.84,–,–
"COc1cc(NC(C(=O)c2c[nH]c3c(C)cc(OC(F)(F)F)cc23)c2ccc(Cl)cc2OC)cc(OCCO)c1 (racemic) [Compound 16, 2-(4-chloro-2-methoxyphenyl)-2-((3-(2-hydroxyethoxy)-5-methoxyphenyl)amino)-1-(7-methyl-5-(trifluoromethoxy)-1H-indol-3-yl)ethanone]",2.5,105,0.19,–,–
